Test results reported in PubChem BioAssay (NCI).
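Growth conditions: 96-well plates. Treatment: test compound, 48 hours, 5 concentrations. Analysis: linear interpolation between bracketing concentrations; unreached endpoints set to highest concentration. At the GI50, growth is halved. TGI is the concentration that stops growth completely.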

Columns and labels:
Assay in all cases: inhibition of tumour cell growth, NCI panel, 48 h; in the data active means GI50 below about 0.43 µM; inactive means the rest
[1] = tested on: 786-0 renal
[2] = tested on: A498 renal
[3] = tested on: A549 NSCLC
[4] = tested on: ACHN renal
[5] = tested on: BT-549 breast
[6] = tested on: CAKI-1 renal
[7] = tested on: CCRF-CEM leukemia
[8] = tested on: COLO 205 colon
[9] = tested on: DU-145 prostate
[10] = tested on: EKVX NSCLC
[11] = tested on: HCC-2998 colon
[12] = tested on: HCT-116 colon
[13] = tested on: HCT-15 colon
[14] = tested on: HOP-62 NSCLC
[15] = tested on: HOP-92 NSCLC
[16] = tested on: HS 578T breast
[17] = tested on: HT29 colon
[18] = tested on: IGROV1 ovarian
[19] = tested on: KM12 colon
[20] = tested on: LOX IMVI melanoma
[21] = tested on: M14 melanoma
[22] = tested on: MALME-3M melanoma
[23] = tested on: MCF7 breast
[24] = tested on: MDA-MB-231 breast
[25] = tested on: MDA-MB-435
[26] = tested on: MOLT-4 leukemia
[27] = tested on: NCI-H226 lung
[28] = tested on: NCI-H23 lung
[29] = tested on: NCI-H460 lung
[30] = tested on: NCI-H522 lung
[31] = tested on: NCI/ADR-RES ovarian
[32] = tested on: OVCAR-3 ovarian
[33] = tested on: OVCAR-4 ovarian
[34] = tested on: OVCAR-5 ovarian
[35] = tested on: OVCAR-8 ovarian
[36] = tested on: PC-3 prostate
[37] = tested on: RPMI-8226 leukemia
[38] = tested on: RXF 393 renal
[39] = tested on: SF-268 CNS
[40] = tested on: SF-295 CNS
[41] = tested on: SF-539 CNS
[42] = tested on: SK-MEL-2 melanoma
[43] = tested on: SK-MEL-28 melanoma
[44] = tested on: SK-MEL-5 melanoma
[45] = tested on: SK-OV-3 ovarian
[46] = tested on: SN12C renal
[47] = tested on: SNB-19 CNS
[48] = tested on: SNB-75 CNS
[49] = tested on: SW-620 colon
[50] = tested on: T-47D breast
[51] = tested on: TK-10 renal
[52] = tested on: U251 CNS
[53] = tested on: UACC-257 melanoma
[54] = tested on: UACC-62 melanoma
[55] = tested on: UO-31 renal

COC(=O)[C@@]1(C)CCC[C@]2(C)[C@H]3Cc4occc4[C@H](C)[C@@H]3CC[C@@]12O
37.4 µM: TGI [44]
93.1 µM: TGI [38]
40.2 µM: TGI [41]
52.4 µM: TGI [22]
98.5 µM: TGI [30]
70.5 µM: TGI [5]
71.3 µM: TGI [10]
89.7 µM: TGI [11]
38.7 µM: TGI [25]
64.7 µM: TGI [27]
> 100 µM: TGI [1] | TGI [3] | TGI [6] | TGI [7] | TGI [8] | TGI [9] | TGI [13] | TGI [14] | TGI [17] | TGI [18] | TGI [21] | TGI [23] | TGI [24] | TGI [28] | TGI [31] | TGI [33] | TGI [34] | TGI [35] | TGI [36] | TGI [37] | TGI [39] | TGI [43] | TGI [45] | TGI [47] | TGI [48] | TGI [49] | TGI [50] | TGI [51] | TGI [53] | TGI [54] | TGI [55]
50.2 µM: TGI [4]
59 µM: TGI [32]
32.8 µM: TGI [19]
46.6 µM: TGI [2]
42.6 µM: TGI [20]
57.9 µM: TGI [15]
72.4 µM: TGI [42]
42.5 µM: TGI [12]
80.3 µM: TGI [26]
inactive: GI50 [1] 45.8 µM | GI50 [2] 17.9 µM | GI50 [3] 34.4 µM | GI50 [4] 17.8 µM | GI50 [5] 26.9 µM | GI50 [6] 41.8 µM | GI50 [7] 37.2 µM | GI50 [8] 33.1 µM | GI50 [9] 58.7 µM | GI50 [10] 27.7 µM | GI50 [11] 34.3 µM | GI50 [12] 17.6 µM | GI50 [13] 73.5 µM | GI50 [14] 33.7 µM | GI50 [15] 13.4 µM | GI50 [16] 20.1 µM | GI50 [17] 20.9 µM | GI50 [18] 30 µM | GI50 [19] 16 µM | GI50 [20] 18.4 µM | GI50 [21] 28.6 µM | GI50 [22] 21.3 µM | GI50 [23] 18.2 µM | GI50 [24] 32.4 µM | GI50 [25] 16.7 µM | GI50 [26] 17.3 µM | GI50 [27] 20.9 µM | GI50 [28] 45.3 µM | GI50 [29] 16.3 µM | GI50 [30] 31.4 µM | GI50 [31] 68.4 µM | GI50 [32] 17.3 µM | GI50 [33] 92.3 µM | GI50 [34] 73.7 µM | GI50 [35] 35 µM | GI50 [36] 26.1 µM | GI50 [37] 17.9 µM | GI50 [38] 25 µM | GI50 [39] 34 µM | GI50 [40] 21.1 µM | GI50 [41] 19.9 µM | GI50 [42] 26.8 µM | GI50 [43] > 100 µM | GI50 [44] 21.1 µM | GI50 [45] > 100 µM | GI50 [46] 21.1 µM | GI50 [47] 95.5 µM | GI50 [48] 55.6 µM | GI50 [49] 44.1 µM | GI50 [50] 26.4 µM | GI50 [51] 24.5 µM | GI50 [52] 18.1 µM | GI50 [53] 35.6 µM | GI50 [54] 17.5 µM | GI50 [55] 37.5 µM
66.8 µM: TGI [40]
44 µM: TGI [52]
41.4 µM: TGI [16]
49.2 µM: TGI [29]
48 µM: TGI [46]
